Consider 23 compounds from the supplement of paper PMC7695840.

Values joined by “and” are separate entries in the source; they are usually repeats but may differ in a detail not shown here. Equal entries are not always repeated. A value given as a limit tells only on which side of the number the result lay.

A word on the IC50: it is the midpoint of a concentration-inhibition curve. Read a high IC50 as weaker potency.

The test system of test [1] is Staphylococcus aureus MW2 (mecA+). The test is described as follows: IC50 (growth, competition assay). Conditions: cefoxitin: subinhibitory. The gist of the method:
(§1)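 Per plate, DsRed (540/590) and GFP (485/520) readings were normalized between the medians of the single-strain controls, after which No Treatment was fixed at 0.5. These readings came from a 1:1 mix of pre-induced fluorescent S. aureus MW2 strains with and without the resistance gene, grown for 20 h at 37 °C and 90% humidity, unshaken, in LB with a daily-set subinhibitory drug dose in 1536-well plates. Per-strain IC50 meant the dose halving the No Treatment signal, or the maximal signal.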

The subject of test [2] is Staphylococcus aureus MW2 delta-mecA (mecA-). Put plainly: IC50 (growth, competition assay). Particulars: cefoxitin: subinhibitory. Summed up:
as §1

With `Oc1c(Cl)cc(Cl)c2cccnc12` [CAPITROL], the IC50 is 17.9 µM in test [1] (fluorescent label: DsRed), 30 µM in test [1] (fluorescent label: GFP), below 9.85 µM in test [2] (fluorescent label: DsRed) and below 9.85 µM in test [2] (fluorescent label: GFP).

On to `Cc1coc2c1C(=O)C(=O)c1c-2ccc2c(C)cccc12` [Tanshinone I], for which the IC50 in test [1] (fluorescent label: DsRed) is 130 µM; in test [1] (fluorescent label: GFP) it was above 150 µM; in test [2] (fluorescent label: DsRed), 76.7 µM; in test [2] (fluorescent label: GFP), 64 µM.

In the case of `NC(=O)c1cc[n+](CC2=C(C(=O)[O-])N3C(=O)[C@@H](NC(=O)Cc4cccs4)[C@H]3SC2)cc1` [CEFALONIUM], the IC50 in test [1] (fluorescent label: DsRed) is 17.5 µM; in test [1] (fluorescent label: GFP) it was 15.3 µM; in test [2] (fluorescent label: DsRed), below 9.85 µM; in test [2] (fluorescent label: GFP), below 9.85 µM.

As to `CC[C@H]1OC(=O)C[C@@H](O)[C@H](C)[C@@H](O[C@@H]2O[C@H](C)[C@@H](O)[C@H](N(C)C)[C@H]2O)[C@@H](CCN2C[C@H](C)C[C@H](C)C2)C[C@@H](C)C(=O)/C=C/C(C)=C/[C@@H]1CO[C@@H]1O[C@H](C)[C@@H](O)[C@@H](OC)[C@H]1OC` [Tilmicosin], the half-maximal inhibitory concentration (IC50) in test [1] (fluorescent label: DsRed), in test [1] (fluorescent label: GFP), in test [2] (fluorescent label: DsRed) and in test [2] (fluorescent label: GFP) was below 9.85 µM each time.

Turning to `Cc1nc2ccccc2n1Cc1ccc(Cl)cc1` [CHLORMIDAZOLE], the IC50 in test [1] (fluorescent label: DsRed) is below 9.85 µM; in test [1] (fluorescent label: GFP), 10.3 µM; in test [2] (fluorescent label: DsRed), below 9.85 µM; in test [2] (fluorescent label: GFP), below 9.85 µM.

With `CCCCCCCCCCCCCCCCOP(=O)([O-])OCC[N+](C)(C)C` [MILTEX], the IC50 was found to be 35.2 µM in test [1] (fluorescent label: DsRed), 33.7 µM in test [1] (fluorescent label: GFP), 31.1 µM in test [2] (fluorescent label: DsRed) and 28.1 µM in test [2] (fluorescent label: GFP).

Consider `CC(C)[C@H]1c2ccc(F)cc2CC[C@@]1(CCN(C)CCCc1nc2ccccc2[nH]1)OC(=O)C1CC1` [NNC 55-0396], for which the IC50 in test [1] (fluorescent label: DsRed) is 14.8 µM; in test [1] (fluorescent label: GFP), 14.9 µM; in test [2] (fluorescent label: DsRed), below 9.85 µM; in test [2] (fluorescent label: GFP) it was below 9.85 µM.

For the compound `C=C[C@](C)(O)CC[C@@H]1[C@@]2(C)CCCC(C)(C)[C@@H]2CC[C@@]1(C)O` [SCLAREOL], the IC50 in test [1] (fluorescent label: DsRed) is 31.4 µM; in test [1] (fluorescent label: GFP), 28.9 µM; in test [2] (fluorescent label: DsRed), below 9.85 µM; in test [2] (fluorescent label: GFP) it was below 9.85 µM.

For the compound `O=C(O[C@@H]1Cc2c(O)cc(O)cc2O[C@@H]1c1cc(O)c(O)c(O)c1)c1cc(O)c(O)c(O)c1` [(-)-Epigallocatechin gallate], the concentration for half-maximal inhibition (IC50) in test [1] (fluorescent label: DsRed) is 27.4 µM and 17.3 µM; in test [1] (fluorescent label: GFP), 29.7 µM and 46.5 µM; in test [2] (fluorescent label: DsRed), 4.65 µM and < 9.85 µM; in test [2] (fluorescent label: GFP) it was 3.45 µM and < 9.85 µM.

`Cc1onc(-c2ccccc2Cl)c1C(=O)N[C@@H]1C(=O)N2[C@@H]1SC(C)(C)[C@@H]2C(=O)O` [TEGOPEN]: the IC50 in test [1] (fluorescent label: DsRed), in test [1] (fluorescent label: GFP), in test [2] (fluorescent label: DsRed) and in test [2] (fluorescent label: GFP) was below 9.85 µM throughout.

As to `O=C(O)c1nn(Cc2ccc(Cl)cc2Cl)c2ccccc12` [Lonidamine], the IC50 came out at 27.7 µM in test [1] (fluorescent label: DsRed), 78.2 µM in test [1] (fluorescent label: GFP), 22.4 µM in test [2] (fluorescent label: DsRed) and 15 µM in test [2] (fluorescent label: GFP).

For the compound `CCC(C)(C)C(=O)O[C@H]1C[C@@H](C)C=C2C=C[C@H](C)[C@H](CC[C@@H]3C[C@@H](O)CC(=O)O3)[C@H]21` [ZOCOR], the IC50 in test [1] (fluorescent label: DsRed) turned out to be 129 µM; in test [1] (fluorescent label: GFP), 115 µM; in test [2] (fluorescent label: DsRed), 47.8 µM; in test [2] (fluorescent label: GFP), 57.6 µM.

Regarding `Cc1ccc(S(=O)(=O)C=CC#N)cc1` [Bay 11-7082], the concentration for half-maximal inhibition (IC50) in test [1] (fluorescent label: DsRed), in test [1] (fluorescent label: GFP), in test [2] (fluorescent label: DsRed) and in test [2] (fluorescent label: GFP) was below 9.85 µM throughout.

`CCN1C[C@H](C)n2c(c(O)c3c(=O)n(Cc4ccc(F)c(Cl)c4)nc(C(=O)NC)c32)C1=O` [MK-2048]: the half-inhibitory concentration (IC50) in test [1] (fluorescent label: DsRed) was 80.3 µM; in test [1] (fluorescent label: GFP), 64 µM; in test [2] (fluorescent label: DsRed), 39.3 µM; in test [2] (fluorescent label: GFP) it was 40.9 µM.

With `O=C(O)c1ccc(Nc2ncc3c(n2)-c2ccc(Cl)cc2C(c2c(F)cccc2F)=NC3)cc1` [MLN8054], the concentration for half-maximal inhibition (IC50) in test [1] (fluorescent label: DsRed) was determined as 13.7 µM; in test [1] (fluorescent label: GFP), 24.9 µM; in test [2] (fluorescent label: DsRed), 3.89 µM; in test [2] (fluorescent label: GFP), 2.45 µM.

With `CN1CCN(c2cc3c(cc2F)c(=O)c(C(=O)O)cn3-c2ccc(F)cc2)CC1` [DICURAL], the concentration for half-maximal inhibition (IC50) in test [1] (fluorescent label: DsRed), in test [1] (fluorescent label: GFP), in test [2] (fluorescent label: DsRed) and in test [2] (fluorescent label: GFP) was below 9.85 µM each time.

In the case of `COc1cc2c(Oc3ccc(NC(=O)C4(C(=O)Nc5ccc(F)cc5)CC4)cc3F)ccnc2cc1OCCCN1CCOCC1`, the 50% inhibitory concentration (IC50) in test [1] (fluorescent label: DsRed) stood at 41.9 µM; in test [1] (fluorescent label: GFP), 57.4 µM; in test [2] (fluorescent label: DsRed), 13.2 µM; in test [2] (fluorescent label: GFP), 12.1 µM.

Consider `CCCCCCNC(=O)n1cc(F)c(=O)[nH]c1=O` [Carmofur], for which the IC50 in test [1] (fluorescent label: DsRed), in test [1] (fluorescent label: GFP), in test [2] (fluorescent label: DsRed) and in test [2] (fluorescent label: GFP) was below 9.85 µM each time.

Regarding `Cc1ccc(Sc2ccccc2N2CCNCC2)c(C)c1`, the IC50 in test [1] (fluorescent label: DsRed) is 43.5 µM; in test [1] (fluorescent label: GFP), 54.2 µM; in test [2] (fluorescent label: DsRed), below 9.85 µM; in test [2] (fluorescent label: GFP), 14.3 µM.

In the case of `NS(=O)(=O)c1ccc(-n2nc(C(F)(F)F)cc2-c2ccc(Cl)cc2)cc1` [SC-236], the IC50 in test [1] (fluorescent label: DsRed) came out at 94.1 µM; in test [1] (fluorescent label: GFP), 97.3 µM; in test [2] (fluorescent label: DsRed), 26.4 µM; in test [2] (fluorescent label: GFP), 16.3 µM.

For the compound `O=c1[nH]c(=O)n([C@H]2C[C@H](O)[C@@H](CO)O2)cc1F` [Floxuridine], the IC50 in test [1] (fluorescent label: DsRed), in test [1] (fluorescent label: GFP), in test [2] (fluorescent label: DsRed) and in test [2] (fluorescent label: GFP) was below 0.498 µM in each case.

As to `CC(=O)O[C@H]1C[C@@]2(C)[C@@H](C[C@@H](O)[C@H]3[C@@]4(C)CC[C@@H](O)[C@@H](C)[C@@H]4CC[C@@]32C)/C1=C(\CCC=C(C)C)C(=O)O` [FUCIDINE], the IC50 in test [1] (fluorescent label: DsRed), in test [1] (fluorescent label: GFP), in test [2] (fluorescent label: DsRed) and in test [2] (fluorescent label: GFP) was below 9.85 µM in each case.

On to `C#CC[C@H](c1nc2cc(Cl)ccc2c(=O)n1Nc1ccccc1)N(CCCN)C(=O)c1cccc(Cl)c1F` [ARQ 621], for which the half-maximal inhibitory concentration (IC50) came out at 89.2 µM in test [1] (fluorescent label: DsRed), 105 µM in test [1] (fluorescent label: GFP), 23.9 µM in test [2] (fluorescent label: DsRed) and 11.2 µM in test [2] (fluorescent label: GFP).
